Experimental data from patent publication EP4692114A1, “CALCITONIN ANALOGUE, AND DERIVATIVE THEREOF AND USE THEREOF” (Hangzhou Sciwind Biosciences Co., Ltd., priority 2023, dated 2024).
*1 amine or outer side, *2 acyl side, *3 side chain or, on linkers, in order; H or OH if unused. Where a SMILES comes first, the peptide text is derived from it. The star is where a group is joined. C22 diacid = O=C(O)CCCCCCCCCCCCCCCCCCCCC(=O)*; C20 diacid = O=C(O)CCCCCCCCCCCCCCCCCCC(=O)*; C18 diacid = O=C(O)CCCCCCCCCCCCCCCCC(=O)*; C16 diacid = O=C(O)CCCCCCCCCCCCCCC(=O)*; γGlu = O=C(O)[C@H](CCC(=O)[*:2])N[*:1]; Trx = NC[C@H]1CC[C@H](C(=O)O)CC1; Inp = O=C(O)C1CCNCC1

Experiment: Heat accelerated stability assay under a neutral condition
Format: physicochemical
Details: pH about 7.4, 40°C; for Changes in characteristics or properties, 0d / Changes in characteristics or properties, 7d: 1 mg/mL, phosphate; for Concentration change (7d-0d)/%: Day 7 vs Day 0, reversed phase chromatography; for Purity Change% (7d-0d) / Purity Change% (26d-0d): purity from reversed phase chromatography-214 nm; for Purity Change% (7d-0d): Day 7 vs Day 0; for Purity Change% (26d-0d): Day 26 vs Day 0
Procedure: The lyophilized powder (1 mg/mL) of calcitonin analogues or derivatives prepared in accordance with the method of Example 1 were mixed with sodium dihydrogen phosphate (1.42 mg/mL) and dissolved in ultrapure water in the indicated mass-volume ratios. After adjusting pH to about 7.4 with hydrochloric acid/sodium hydroxide, the solution was filtered into a sterilized vial in a clean bench using a 0.22 µm sterile filter. The vial was then capped and placed into the stability test chamber at 40°C. Detections were made on Days 7 (7d) and 26 (26d), and during the assay, changes in the characteristics and properties of the polypeptides were observed and recorded. The sample was then centrifuged for 3 min at 10000 rpm at 4°C, and the supernatant was transferred to a liquid phase sample vial for detecting the concentration and purity of the polypeptides using liquid phase chromatography described as below, wherein the concentration of the polypeptide = peak area/injection volume/extinction coefficient/60×flow rate, and the purity of the polypeptide = target peak area/total peak area× 100%.
Conditions of the reversed phase chromatography Flow rate: 1.0 ml/min; Autosampler temperature: 15°C; Column temperature: 25°C; Detection wavelengths: 280 nm and 214 nm; Mobile phase A: 100% H2O+0.05% TFA; Mobile phase B: 100% ACN; and Gradient of elution listed in Table 4: Table 4. Listing of the gradient of elution in the liquid phase chromatography
Results were shown below in Tables 5, 6, and 7. A difference of more than 5% in content as compared with the initial value was typically assumed (for example, as prescribed by the Chinese Pharmacopeia (2020 Edition)) to be a significant change. Within a reasonable margin of error, a decrease of less than 1% from the initial value to the detected content is denoted as "no change" below. Table 5. Changes in characteristics or properties in the heat accelerated stability assay

| SMILES | Changes in characteristics or properties, 0d | Changes in characteristics or properties, 7d | Concentration change (7d-0d)/% | Purity Change% (7d-0d) | Purity Change% (26d-0d) |
| --- | --- | --- | --- | --- | --- |
| CC(C)C[C@H](NC(=O)[C@H](CCCNC(=N)N)NC(=O)CNC(=O)[C@H](CC(C)C)NC(=O)[C@@H](NC(=O)[C@H](C)NC(=O)[C@@H](NC(=O)[C@H](CO)NC(=O)[C@H](CC(C)C)NC(=O)[C@H](CCC(N)=O)NC(=O)[C@H](CO)NC(=O)[C@H](C)NC(=O)[C@H]1CC[C@H](CNC(=O)CCCCCCCCCCCCCCCCCCC(=O)O)CC1)[C@@H](C)O)C(C)C)C(=O)N[C@@H](CO)C(=O)N[C@@H](CC(=O)O)C(=O)N[C@@H](CCC(=O)O)C(=O)N[C@@H](CC(C)C)C(=O)N[C@@H](Cc1c[nH]cn1)C(=O)N[C@@H](CCCNC(=N)N)C(=O)N[C@@H](CC(C)C)C(=O)N[C@@H](CCC(N)=O)C(=O)N[C@@H](CC(=O)O)C(=O)N[C@@H](Cc1ccc(O)cc1)C(=O)N1CCC[C@H]1C(=O)N[C@@H](CCCNC(=N)N)C(=O)N[C@H](C(=O)N[C@@H](CC(=O)O)C(=O)N[C@H](C(=O)NCC(=O)N[C@@H](CO)C(=O)NCC(=O)N[C@@H](CO)C(=O)N1CCC[C@H]1C(N)=O)C(C)C)[C@@H](C)O [M45] ({C20 diacid-Trx}-ASQLSTAVLGRLSDELHRLQDYPRTDVGSGSP-NH2) | Clear | Clear | -2.670% | No change (a decrease of less than 1% from the initial value to the detected content is denoted as "no change") | -1.77% |
| CC(C)C[C@H](NC(=O)[C@H](CCCNC(=N)N)NC(=O)CNC(=O)[C@H](CC(C)C)NC(=O)[C@@H](NC(=O)[C@H](C)NC(=O)[C@@H](NC(=O)[C@H](CO)NC(=O)[C@H](CC(C)C)NC(=O)[C@H](CCC(N)=O)NC(=O)[C@H](CO)NC(=O)[C@H](C)NC(=O)CC[C@H](NC(=O)CCCCCCCCCCCCCCC(=O)O)C(=O)O)[C@@H](C)O)C(C)C)C(=O)N[C@@H](CO)C(=O)N[C@@H](CC(=O)O)C(=O)N[C@@H](CCC(=O)O)C(=O)N[C@@H](CC(C)C)C(=O)N[C@@H](Cc1c[nH]cn1)C(=O)N[C@@H](CCCNC(=N)N)C(=O)N[C@@H](CC(C)C)C(=O)N[C@@H](CCC(N)=O)C(=O)N[C@@H](CC(=O)O)C(=O)N[C@@H](Cc1ccc(O)cc1)C(=O)N1CCC[C@H]1C(=O)N[C@@H](CCCNC(=N)N)C(=O)N[C@H](C(=O)N[C@@H](CC(=O)O)C(=O)N[C@H](C(=O)NCC(=O)N[C@@H](CO)C(=O)NCC(=O)N[C@@H](CO)C(=O)N1CCC[C@H]1C(N)=O)C(C)C)[C@@H](C)O [M40] ({C16 diacid-γGlu}-ASQLSTAVLGRLSDELHRLQDYPRTDVGSGSP-NH2) | Clear | Clear | -2.280% | -1.67% | -4.82% |
| CC(C)C[C@H](NC(=O)[C@H](CCCNC(=N)N)NC(=O)CNC(=O)[C@H](CC(C)C)NC(=O)[C@@H](NC(=O)[C@H](C)NC(=O)[C@@H](NC(=O)[C@H](CO)NC(=O)[C@H](CC(C)C)NC(=O)[C@H](CCC(N)=O)NC(=O)[C@H](CO)NC(=O)[C@H](C)NC(=O)CC[C@H](NC(=O)CCCCCCCCCCCCCCCCCCCCC(=O)O)C(=O)O)[C@@H](C)O)C(C)C)C(=O)N[C@@H](CO)C(=O)N[C@@H](CC(=O)O)C(=O)N[C@@H](CCC(=O)O)C(=O)N[C@@H](CC(C)C)C(=O)N[C@@H](Cc1c[nH]cn1)C(=O)N[C@@H](CCCNC(=N)N)C(=O)N[C@@H](CC(C)C)C(=O)N[C@@H](CCC(N)=O)C(=O)N[C@@H](CC(=O)O)C(=O)N[C@@H](Cc1ccc(O)cc1)C(=O)N1CCC[C@H]1C(=O)N[C@@H](CCCNC(=N)N)C(=O)N[C@H](C(=O)N[C@@H](CC(=O)O)C(=O)N[C@H](C(=O)NCC(=O)N[C@@H](CO)C(=O)NCC(=O)N[C@@H](CO)C(=O)N1CCC[C@H]1C(N)=O)C(C)C)[C@@H](C)O [M38] ({C22 diacid-γGlu}-ASQLSTAVLGRLSDELHRLQDYPRTDVGSGSP-NH2) | Clear | Clear | No change (a decrease of less than 1% from the initial value to the detected content is denoted as "no change") | No change (a decrease of less than 1% from the initial value to the detected content is denoted as "no change") | No change (a decrease of less than 1% from the initial value to the detected content is denoted as "no change") |
| CC(C)C[C@H](NC(=O)[C@H](CCCNC(=N)N)NC(=O)CNC(=O)[C@H](CC(C)C)NC(=O)[C@@H](NC(=O)[C@H](C)NC(=O)[C@@H](NC(=O)[C@H](CO)NC(=O)[C@H](CC(C)C)NC(=O)[C@H](CCC(N)=O)NC(=O)[C@H](CO)NC(=O)[C@H](C)NC(=O)[C@H]1CC[C@H](CNC(=O)CCCCCCCCCCCCCCCCC(=O)O)CC1)[C@@H](C)O)C(C)C)C(=O)N[C@@H](CO)C(=O)N[C@@H](CC(=O)O)C(=O)N[C@@H](CCC(=O)O)C(=O)N[C@@H](CC(C)C)C(=O)N[C@@H](Cc1c[nH]cn1)C(=O)N[C@@H](CCCNC(=N)N)C(=O)N[C@@H](CC(C)C)C(=O)N[C@@H](CCC(N)=O)C(=O)N[C@@H](CC(=O)O)C(=O)N[C@@H](Cc1ccc(O)cc1)C(=O)N1CCC[C@H]1C(=O)N[C@@H](CCCNC(=N)N)C(=O)N[C@H](C(=O)N[C@@H](CC(=O)O)C(=O)N[C@H](C(=O)NCC(=O)N[C@@H](CO)C(=O)NCC(=O)N[C@@H](CO)C(=O)N1CCC[C@H]1C(N)=O)C(C)C)[C@@H](C)O [M46] ({C18 diacid-Trx}-ASQLSTAVLGRLSDELHRLQDYPRTDVGSGSP-NH2) | Clear | Clear | No change (a decrease of less than 1% from the initial value to the detected content is denoted as "no change") | No change (a decrease of less than 1% from the initial value to the detected content is denoted as "no change") | -5.67% |
| CC(C)C[C@H](NC(=O)[C@H](CCCNC(=N)N)NC(=O)CNC(=O)[C@H](CC(C)C)NC(=O)[C@@H](NC(=O)[C@H](C)NC(=O)[C@@H](NC(=O)[C@H](CO)NC(=O)[C@H](CC(C)C)NC(=O)[C@H](CCC(N)=O)NC(=O)[C@H](CO)NC(=O)[C@H](C)NC(=O)[C@H](CCC(=O)O)NC(=O)CCCCCCCCCCCCCCCCCCC(=O)O)[C@@H](C)O)C(C)C)C(=O)N[C@@H](CO)C(=O)N[C@@H](CC(=O)O)C(=O)N[C@@H](CCC(=O)O)C(=O)N[C@@H](CC(C)C)C(=O)N[C@@H](Cc1c[nH]cn1)C(=O)N[C@@H](CCCNC(=N)N)C(=O)N[C@@H](CC(C)C)C(=O)N[C@@H](CCC(N)=O)C(=O)N[C@@H](CC(=O)O)C(=O)N[C@@H](Cc1ccc(O)cc1)C(=O)N1CCC[C@H]1C(=O)N[C@@H](CCCNC(=N)N)C(=O)N[C@H](C(=O)N[C@@H](CC(=O)O)C(=O)N[C@H](C(=O)NCC(=O)N[C@@H](CO)C(=O)NCC(=O)N[C@@H](CO)C(=O)N1CCC[C@H]1C(N)=O)C(C)C)[C@@H](C)O [M41] ({C20 diacid}-EASQLSTAVLGRLSDELHRLQDYPRTDVGSGSP-NH2) | Clear | Clear | -3.134% | -1.66% | -5.98% |
| CC(C)C[C@H](NC(=O)[C@H](CCCNC(=N)N)NC(=O)CNC(=O)[C@H](CC(C)C)NC(=O)[C@@H](NC(=O)[C@H](C)NC(=O)[C@@H](NC(=O)[C@H](CO)NC(=O)[C@H](CC(C)C)NC(=O)[C@H](CCC(N)=O)NC(=O)[C@H](CO)NC(=O)[C@H](C)NC(=O)C1CCN(C(=O)CCCCCCCCCCCCCCCCCCC(=O)O)CC1)[C@@H](C)O)C(C)C)C(=O)N[C@@H](CO)C(=O)N[C@@H](CC(=O)O)C(=O)N[C@@H](CCC(=O)O)C(=O)N[C@@H](CC(C)C)C(=O)N[C@@H](Cc1c[nH]cn1)C(=O)N[C@@H](CCCNC(=N)N)C(=O)N[C@@H](CC(C)C)C(=O)N[C@@H](CCC(N)=O)C(=O)N[C@@H](CC(=O)O)C(=O)N[C@@H](Cc1ccc(O)cc1)C(=O)N1CCC[C@H]1C(=O)N[C@@H](CCCNC(=N)N)C(=O)N[C@H](C(=O)N[C@@H](CC(=O)O)C(=O)N[C@H](C(=O)NCC(=O)N[C@@H](CO)C(=O)NCC(=O)N[C@@H](CO)C(=O)N1CCC[C@H]1C(N)=O)C(C)C)[C@@H](C)O [M47] ({C20 diacid-Inp}-ASQLSTAVLGRLSDELHRLQDYPRTDVGSGSP-NH2) | Clear | Clear | -3.488% | No change (a decrease of less than 1% from the initial value to the detected content is denoted as "no change") | No change (a decrease of less than 1% from the initial value to the detected content is denoted as "no change") |
